Results from PubChem BioAssay (NCI).
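The concentration for 50% growth inhibition is given as GI50. TGI: concentration producing complete growth inhibition.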

Legend:
Test in all cases: NCI anticancer screen, dose series, 384-well format
786-0 renal = tested on: 786-0 renal
A498 renal = tested on: A498 renal
A549 NSCLC = tested on: A549 NSCLC
ACHN renal = tested on: ACHN renal
BT-549 breast = tested on: BT-549 breast
CCRF-CEM leukemia = tested on: CCRF-CEM leukemia
COLO 205 colon = tested on: COLO 205 colon
DU-145 prostate = tested on: DU-145 prostate
HCC-2998 colon = tested on: HCC-2998 colon
HCT-116 colon = tested on: HCT-116 colon
HCT-15 colon = tested on: HCT-15 colon
HL-60(TB) leukemia = tested on: HL-60(TB) leukemia
HOP-62 NSCLC = tested on: HOP-62 NSCLC
HOP-92 NSCLC = tested on: HOP-92 NSCLC
HT29 colon = tested on: HT29 colon
IGROV1 ovarian = tested on: IGROV1 ovarian
K-562 leukemia = tested on: K-562 leukemia
KM12 colon = tested on: KM12 colon
LOX IMVI melanoma = tested on: LOX IMVI melanoma
MALME-3M melanoma = tested on: MALME-3M melanoma
MCF7 breast = tested on: MCF7 breast
MDA-MB-231 breast = tested on: MDA-MB-231 breast
MDA-MB-435 melanoma = tested on: MDA-MB-435 melanoma
MDA-MB-468 breast = tested on: MDA-MB-468 breast
MOLT-4 leukemia = tested on: MOLT-4 leukemia
NCI-H226 lung = tested on: NCI-H226 lung
NCI-H23 lung = tested on: NCI-H23 lung
NCI-H322M lung = tested on: NCI-H322M lung
NCI-H460 NSCLC = tested on: NCI-H460 NSCLC
NCI-H522 lung = tested on: NCI-H522 lung
NCI/ADR-RES ovarian = tested on: NCI/ADR-RES ovarian
OVCAR-3 ovarian = tested on: OVCAR-3 ovarian
OVCAR-4 ovarian = tested on: OVCAR-4 ovarian
OVCAR-5 ovarian = tested on: OVCAR-5 ovarian
OVCAR-8 ovarian = tested on: OVCAR-8 ovarian
PC-3 prostate = tested on: PC-3 prostate
RPMI-8226 leukemia = tested on: RPMI-8226 leukemia
RXF 393 renal = tested on: RXF 393 renal
SF-295 CNS = tested on: SF-295 CNS
SF-539 CNS = tested on: SF-539 CNS
SK-MEL-2 melanoma = tested on: SK-MEL-2 melanoma
SK-MEL-28 melanoma = tested on: SK-MEL-28 melanoma
SK-MEL-5 melanoma = tested on: SK-MEL-5 melanoma
SK-OV-3 ovarian = tested on: SK-OV-3 ovarian
SN12C renal = tested on: SN12C renal
SNB-19 CNS = tested on: SNB-19 CNS
SR leukemia = tested on: SR leukemia
SW-620 colon = tested on: SW-620 colon
T-47D breast = tested on: T-47D breast
TK-10 renal = tested on: TK-10 renal
U251 glioblastoma = tested on: U251 glioblastoma
UACC-257 melanoma = tested on: UACC-257 melanoma
UACC-62 melanoma = tested on: UACC-62 melanoma
UO-31 renal = tested on: UO-31 renal

SMILES: Cc1sc2c(c1C)C(c1ccc(Cl)cc1)=N[C@@H](CC(=O)Nc1ccc(OCCOCCOCCOCCNc3cccc4c3C(=O)N(C3CCC(=O)NC3=O)C4=O)cc1)c1nnc(C)n1-2 (stereo partly drawn)
- GI50 ([…]-0 renal): 44.4 nM
- TGI (786-0 renal): 810 nM
- GI50 (A498 renal): 166 nM
- TGI (A498 renal): > 100000 nM
- GI50 (A549 NSCLC): 36.1 nM
- TGI (A549 NSCLC): > 100000 nM
- GI50 (ACHN renal): 534 nM
- TGI (ACHN renal): > 100000 nM
- GI50 (BT-549 breast): < 10 nM
- TGI (BT-549 breast): < 10 nM
- GI50 (CCRF-CEM leukemia): < 10 nM
- TGI (CCRF-CEM leukemia): 11.9 nM
- GI50 (COLO 205 colon): 10.7 nM
- TGI (COLO 205 colon): 44.6 nM
- GI50 (DU-145 prostate): 624 nM
- TGI (DU-145 prostate): 16100 nM
- GI50 (HCC-2998 colon): < 10 nM
- TGI (HCC-2998 colon): 21.7 nM
- GI50 (HCT-116 colon): 56.8 nM
- TGI (HCT-116 colon): 13600 nM
- GI50 (HCT-15 colon): 121 nM
- TGI (HCT-15 colon): 278 nM
- GI50 (HL-60(TB) leukemia): < 10 nM
- TGI (HL-60(TB) leukemia): < 10 nM
- GI50 (HOP-62 NSCLC): 22.4 nM
- TGI (HOP-62 NSCLC): 75.5 nM
- GI50 (HOP-92 NSCLC): 25.3 nM
- TGI (HOP-92 NSCLC): 291 nM
- GI50 (HT29 colon): 106 nM
- TGI (HT29 colon): 434 nM
- GI50 (IGROV1 ovarian): 26.5 nM
- TGI (IGROV1 ovarian): 123 nM
- GI50 (K-562 leukemia): 54 nM
- TGI (K-562 leukemia): 87100 nM
- GI50 (KM12 colon): 37.4 nM
- TGI (KM12 colon): > 100000 nM
- GI50 (LOX IMVI melanoma): 68.4 nM
- TGI (LOX IMVI melanoma): 203 nM
- GI50 (MALME-3M melanoma): 133 nM
- TGI (MALME-3M melanoma): 326 nM
- GI50 (MCF7 breast): < 10 nM
- TGI (MCF7 breast): 40.3 nM
- GI50 (MDA-MB-231 breast): < 10 nM
- TGI (MDA-MB-231 breast): 24 nM
- GI50 (MDA-MB-435 melanoma): 31.6 nM
- TGI (MDA-MB-435 melanoma): 166 nM
- GI50 (MDA-MB-468 breast): 15.2 nM
- TGI (MDA-MB-468 breast): 39.9 nM
- GI50 (MOLT-4 leukemia): < 10 nM
- TGI (MOLT-4 leukemia): 19.8 nM
- GI50 (NCI-H226 lung): 31.5 nM
- TGI (NCI-H226 lung): 131 nM
- GI50 (NCI-H23 lung): 182 nM
- TGI (NCI-H23 lung): 443 nM
- GI50 (NCI-H322M lung): 16.4 nM
- TGI (NCI-H322M lung): 78.9 nM
- GI50 (NCI-H460 NSCLC): 380 nM
- TGI (NCI-H460 NSCLC): > 100000 nM
- GI50 (NCI-H522 lung): 37.1 nM
- TGI (NCI-H522 lung): 182 nM
- GI50 (NCI/ADR-RES ovarian): 21800 nM
- TGI (NCI/ADR-RES ovarian): > 100000 nM
- GI50 (OVCAR-3 ovarian): 69.1 nM
- TGI (OVCAR-3 ovarian): 431 nM
- GI50 (OVCAR-4 ovarian): 15.2 nM
- TGI (OVCAR-4 ovarian): 34.1 nM
- GI50 (OVCAR-5 ovarian): 42.8 nM
- TGI (OVCAR-5 ovarian): 1470 nM
- GI50 (OVCAR-8 ovarian): < 10 nM
- TGI (OVCAR-8 ovarian): 18.7 nM
- GI50 (PC-3 prostate): 15.3 nM
- TGI (PC-3 prostate): > 100000 nM
- GI50 (RPMI-8226 leukemia): < 10 nM
- TGI (RPMI-8226 leukemia): < 10 nM
- GI50 (RXF 393 renal): 34.9 nM
- TGI (RXF 393 renal): 96.2 nM
- GI50 (SF-295 CNS): 131 nM
- TGI (SF-295 CNS): 550 nM
- GI50 (SF-539 CNS): 90.4 nM
- TGI (SF-539 CNS): 1120 nM
- GI50 (SK-MEL-2 melanoma): < 10 nM
- TGI (SK-MEL-2 melanoma): 25.5 nM
- GI50 (SK-MEL-28 melanoma): 130 nM
- TGI (SK-MEL-28 melanoma): 799 nM
- GI50 (SK-MEL-5 melanoma): 30 nM
- TGI (SK-MEL-5 melanoma): 118 nM
- GI50 (SK-OV-3 ovarian): 76.5 nM
- TGI (SK-OV-3 ovarian): 228 nM
- GI50 (SN12C renal): 37.6 nM
- TGI (SN12C renal): > 100000 nM
- GI50 (SNB-19 CNS): 51.6 nM
- TGI (SNB-19 CNS): > 100000 nM
- GI50 (SR leukemia): 19.4 nM
- TGI (SR leukemia): 69 nM
- GI50 (SW-620 colon): 33.5 nM
- TGI (SW-620 colon): > 100000 nM
- GI50 (T-47D breast): < 10 nM
- TGI (T-47D breast): < 10 nM
- GI50 (TK-10 renal): 190 nM
- TGI (TK-10 renal): > 100000 nM
- GI50 (U251 glioblastoma): 186 nM
- TGI (U251 glioblastoma): 80100 nM
- GI50 (UACC-257 melanoma): 179 nM
- TGI (UACC-257 melanoma): 28200 nM
- GI50 (UACC-62 melanoma): 34.7 nM
- TGI (UACC-62 melanoma): 162 nM
- GI50 (UO-31 renal): 305 nM
- TGI (UO-31 renal): > 100000 nM
